Reference: patent US20240025849A1 (MAX DELBRÜCK-CENTRUM FÜR MOLEKULARE MEDIZIN IN DER …, priority 2020, published 2024)
“And” between values parts separate entries of the source, which are not always exact repeats. Identical values can stand only once. “Also recorded” adds a separate entry of the source.

Key:
[1] = test system: bone marrow derived macrophages; experiment: NO release in bone marrow derived macrophages, Griess assay; format: cell-based, mouse; settings: for NO release: 0.25 μM C1; for NO release, % of positive control: 2.5 μM C1
Method: (§1) Primary cultured macrophages. Bone marrow macrophages were isolated from C57BL/6 adult mice (P49-56) as previously described (Marim et al., 2010). In summary, mice were killed by cervical dislocation and the femurs were removed by cutting through the tibia near the pelvic bone and below the knee. Any muscle connected to the bone was carefully removed. Ice cold sterile PBS was slowly flushed through the bone and the contents were collected in a sterile 15 mL polypropylene tube on ice. After centrifugation for 10 min at 200 g at 4° C., red blood cells were lysed by adding 3-10 mL ammonium chloride solution. After a 3-5 min recovery period, the suspension was centrifuged for 10 min at 200 g at 4° C. and the supernatant was removed. Cells were plated in a 10 cm dish with plain medium containing 10 ng/mL M-CSF and cultured for 7 days to allow differentiation. 50 000 cells were plated with 200 μL medium per well in a 96 well plate.
Griess assay. Cells were seeded according to the protocols described above, after compounds and stimuli were added, 100 μl of supernatant was transferred into a new 96 well plate and 100 μl freshly mixed Griess reagent were added. Griess reagent was composed of reagent A (100 mg Naphthylethylene in 50 ml aqua dest.) and reagent B (1 g Sulfanilamide, […] H3PO4 (85%) in 44 mL aqua dest.) mixed 1:1. The solution was carefully mixed and the absorbance was determined in a microplate reader at a wavelength of 550 nm.
Microglia and macrophages share many of their immune properties, therefore the inventors evaluated the impact of C1 on the release of NO and the pro-inflammatory cytokines IL1β, IL6, and TNFα on bone marrow derived macrophages (Amici et al., 2017; Li and Barres, 2017). Bone marrow derived macrophages were isolated from adult mice and pre-treated for 1 hour with C1 (0.025 μM, 0.25 μM, or 2.5 μM), its corresponding concentration of DMSO (1.25×10-5, 12.5×10-5, or 125×10-5 v/v), or plain medium before a stimulus was added. The NO release was measured after stimulation with either 1 μg/ml LPS for 48 hours (FIG. 2-1A), 100 μg/mL PolyIC for 24 hours (FIG. 2-1B) or 100 ng/ml IFNγ for 48 hours (FIG. 2-1C). […] DMSO had no effect on the NO release in bone marrow derived macrophages stimulated with LPS or PolyIC (FIGS. 2-1A and B). However, it reduced the IFNγ induced NO release in these cells independently of the applied dose (1.25×10-5 v/v: 85%, p<0.0043; 12.5×10-5 v/v: 83%, p<0.0016; 125×10-5 v/v: 85%, p<0.0046, FIG. 2-1C), similar to the effect observed in microglia when stimulated with IFNγ (FIG. 2A).

iNOS = experiment: NOS enzyme activity assay (Eurofins), iNOS; format: biochemical; settings: C1: 1 μM up to 5 μM as printed; 30 min reaction
Method: In mammalians NO is produced by the three isoforms of NOS: iNOS, eNOS, and nNOS. To evaluate the direct influence of cl on the different isoforms of NOS, an enzyme activity assay was conducted by Eurofins. C1 was mixed with the enzyme buffer, which included co-factors and substrates and by adding the enzyme the reaction was initiated. After 30 min the reaction was stopped, and NO concentration was measured. The results are normalised to positive control performed without any additional compounds and are presented as percentage in inhibition. […] To test the compounds effect on iNOS a concentration range from […] 5 μM were applied ([…], 1, 10, 100 nM, 1, and 5 μM), and for testing eNOS and nNOS 1 nM and 1 μM were applied.

[2] = test system: bone marrow derived macrophages; experiment: Cytokine release (IL1β, IL6, TNFα) ELISA in macrophages; format: cell-based, mouse; settings: 1 μg/mL LPS 48 hours
Method: as §1
Enzyme-linked immunosorbent assay (ELISA). Cells were seeded according to the protocols described above, after compounds and stimuli were added, the supernatant was collected, centrifuged (500 g, 5 minutes) and stored at −20° C. until analysed. The following kits from Bio-Techne (Minneapolis, USA) were used to detect IL1β, IL6 and TNFα: ELISA Mouse IL-1β/IL-1F2 Duo Set, ELISA Mouse IL-6, ELISA Mouse TNFα. ELISA assays were performed according to the manufacturers protocol.

[3] = test system: primary cultured neonatal microglia; experiment: Propidium iodide based proliferation and cell death assay in microglia; settings: 2.5 μM C1, 48 hours, unstimulated
Method: Primary cultured neonatal microglia. For preparation of cultured neonatal microglia, P0-P3 mice were used. 10 brains were extracted, meninges and cerebellum were removed and put on ice with Hank's balanced salt solution (HBSS). The dissected brains were washed 3 times before adding 400 μL trypsin (0.1 mg/L) and DNAse (5 μg/L) in phosphate buffered saline (PBS). After 2 min of incubation with this solution, the reaction was blocked by adding plain medium. After removal of the medium, 1 mg DNAse was added and the cells were mechanically dissociated, with a Pasteur pipette followed by a glass pipette. The cells were centrifuged for 10 min at 129 g at 4° C. The supernatant was discarded. The pellet was resuspended in plain medium and plated (2.5 brains/flask) in Poly-L-Lysine coated flasks. The cells were washed after 2 days with PBS and incubated for another 7 days in plain medium. […]
Propidium iodide based proliferation and cell death assay. […] The intensity of the propidium iodide signal of the dead cells was measured using a microplate reader. Afterwards, all cells were killed with a 10 min incubation of 10% DMSO and the propidium iodide signal of all cells was measured. […] The percentage of dead cells was calculated by dividing the dead-cell-signal by the all-cell-signal. Proliferation was calculated as a relative value to the plain medium control.

SMILES: COc1ccc(NC(=O)C(NC(=O)C2CCCN2C(=O)OCc2ccccc2)c2ccc(OC)cc2)cc1 (centres unmarked) [C1]
- NO release ([1]; 1 μg/mL LPS 48 hours): reduced the NO release significantly
- NO release ([1]; 100 μg/mL PolyIC 24 hours): significant decrease
- NO release, % of positive control ([1]; 100 ng/mL IFNγ 48 hours): 18%
- NO release, % of positive control ([1]; 100 μg/mL PolyIC 24 hours): 15.01±10.32% and 15%
- NO release, dose dependence ([1]; 0.025, 0.25, 2.5 μM C1, LPS, PolyIC or IFNγ): reduced the NO release in a dose dependent manner
- enzymatic activity of iNOS (iNOS): does not interfere
- LPS induced release of IL1β [2]: not changed; also recorded: Neither the treatment with C1 nor with DMSO showed any significant changes
- LPS induced release of IL6 [2]: not changed; also recorded: Neither the treatment with C1 nor with DMSO showed any significant changes
- reduction of TNFα release ([2]; 2.5 μM (highest concentration) C1): 9% and 5%
- release of TNFα, % of positive control ([2]; 2.5 μM C1): 91%
- percentage of dead cells in microglia [3]: 8.49%
